Test results from patent US11339168B2, “Crystalline forms of 6-(6-aminopyrazin-2-yl)-N-(4-(4-(oxetan-3-yl)piperazin-1-yl)phenyl)imidazo[1,2-a]pyrazin-8-amine as Syk inhibitors” (Kronos Bio, Inc., priority 2019, dated 2022).
Counter-ions that a name gives are not always drawn.

Assay: Hygroscopicity by dynamic vapor sorption (DVS)
Type: physicochemical
Settings: for water absorbed (DVS): 25° C. and 95% RH; for hygroscopicity (DVS analysis), in words: 25° C.
Protocol: Hygroscopicity was studied using dynamic vapor sorption (DVS, TA Q5000 SA, TA Instruments, New Castle, Del. or DVS, DVS Intrinsic, Surface Measurement Systems, London, UK). A sample (2-20 mg) was placed in an aluminum DVS pan and loaded on the sample side of the twin pan balance. The water sorption and desorption were studied as a function of relative humidity (RH) at 25° C. In 10% RH increments, the relative humidity was increased from 5% RH to 95% RH and then decreased back to 5%. […] Data analysis was performed using Universal Analysis 2000 Version 4.7A (TA Instruments, New Castle, Del.) for TA DVS runs and Microsoft Excel for SMS DVS runs.

[1] = for Mono-BSA Form I up to 85% RH

Q: What does the source list for `Nc1cncc(-c2cn3ccnc3c(Nc3ccc(N4CCN(C5COC5)CC4)cc3)n2)n1` [Compound I Form I, 6-(6-aminopyrazin-2-yl)-N-(4-(4-(oxetan-3-yl)piperazin-1-yl)phenyl)imidazo[1,2-a]pyrazin-8-amine]?
A: water absorbed (DVS): about 0.8 wt. %; hygroscopicity (DVS analysis), in words [1]: slightly hygroscopic

Q: What does the source list for `Nc1cncc(-c2cn3ccnc3c(Nc3ccc(N4CCN(C5COC5)CC4)cc3)n2)n1` [Compound I Form II, 6-(6-aminopyrazin-2-yl)-N-(4-(4-(oxetan-3-yl)piperazin-1-yl)phenyl)imidazo[1,2-a]pyrazin-8-amine]?
A: water absorbed (DVS): about 2 wt. %; hygroscopicity (DVS analysis), in words [1]: slightly hygroscopic

Q: Which “water absorbed (DVS)” value does the source give for `Nc1cncc(-c2cn3ccnc3c(Nc3ccc(N4CCN(C5COC5)CC4)cc3)n2)n1` [Compound I Form V, 6-(6-aminopyrazin-2-yl)-N-(4-(4-(oxetan-3-yl)piperazin-1-yl)phenyl)imidazo[1,2-a]pyrazin-8-amine] here?
A: The value was “about 0.5 wt. %”.

Q: What about the “hygroscopicity (DVS analysis), in words” value [1] of the same molecule?
A: The value was “slightly hygroscopic”.

Q: For `Nc1cncc(-c2cn3ccnc3c(Nc3ccc(N4CCN(C5COC5)CC4)cc3)n2)n1` [Compound I Hemi-Succinate Form I, 6-(6-aminopyrazin-2-yl)-N-(4-(4-(oxetan-3-yl)piperazin-1-yl)phenyl)imidazo[1,2-a]pyrazin-8-amine], which “hygroscopicity (DVS analysis), in words” value [1] is on record?
A: Its value is “slightly hygroscopic”.

Q: And the “water uptake (DVS)” value (90% RH at 25° C.)?
A: The value was “about 0.4 wt. %”.

Q: What does the source list for `Nc1cncc(-c2cn3ccnc3c(Nc3ccc(N4CCN(C5COC5)CC4)cc3)n2)n1` [Compound I Mono-BSA Form I, 6-(6-aminopyrazin-2-yl)-N-(4-(4-(oxetan-3-yl)piperazin-1-yl)phenyl)imidazo[1,2-a]pyrazin-8-amine]?
A: water absorbed (DVS): > 15 wt. %; hygroscopicity (DVS analysis), in words [1]: slightly hygroscopic; water uptake (DVS) (85% RH at 25° C.): about 1.5 wt. %; hygroscopicity (DVS analysis), in words (above 85% RH, led to deliquescence): very hygroscopic

Q: For `Nc1cncc(-c2cn3ccnc3c(Nc3ccc(N4CCN(C5COC5)CC4)cc3)n2)n1` [Compound I Mono-HCl salt Form II, 6-(6-aminopyrazin-2-yl)-N-(4-(4-(oxetan-3-yl)piperazin-1-yl)phenyl)imidazo[1,2-a]pyrazin-8-amine], which “hygroscopicity (DVS analysis), in words” value [1] is on record?
A: The value was “very hygroscopic”.

Q: What about the “water uptake (DVS)” value (90% RH at 25° C.) of the same molecule?
A: The value was “about 16 wt. %”.

Q: What does the source list for `Nc1cncc(-c2cn3ccnc3c(Nc3ccc(N4CCN(C5COC5)CC4)cc3)n2)n1` [Compound I Sesqui-Adipate Form I, 6-(6-aminopyrazin-2-yl)-N-(4-(4-(oxetan-3-yl)piperazin-1-yl)phenyl)imidazo[1,2-a]pyrazin-8-amine]?
A: hygroscopicity (DVS analysis), in words [1]: moderately hygroscopic; water uptake (DVS) (90% RH at 25° C.): about 2.1 wt. %
